The results in this text go back to patent US20220135538A1, “P300/CBP HAT INHIBITORS AND METHODS FOR THEIR USE” (Constellation Pharmaceuticals, Inc., priority 2019, published 2022).

Test [1] addresses T1, p300 HAT domain (residues 1287-1666) (Homo sapiens, UniProt Q09472).
T1 construct: The p300 HAT domain (residues 1287-1666) was expressed; His tag (N); made in house; host or cells: Escherichia coli
T1 sequence (Q09472 1287-1666): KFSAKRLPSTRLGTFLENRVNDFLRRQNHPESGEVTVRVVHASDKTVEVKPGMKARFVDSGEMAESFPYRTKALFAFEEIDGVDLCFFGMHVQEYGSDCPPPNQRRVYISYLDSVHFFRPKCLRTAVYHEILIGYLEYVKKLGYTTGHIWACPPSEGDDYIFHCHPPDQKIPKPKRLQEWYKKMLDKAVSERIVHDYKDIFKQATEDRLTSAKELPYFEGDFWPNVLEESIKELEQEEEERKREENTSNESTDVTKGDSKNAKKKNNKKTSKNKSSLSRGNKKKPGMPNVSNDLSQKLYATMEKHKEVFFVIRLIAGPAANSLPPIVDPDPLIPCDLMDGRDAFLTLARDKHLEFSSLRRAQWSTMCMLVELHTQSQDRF
Kind of test: P300 HAT SPA assay (scintillation proximity, acetylation of biotinylated H3(1-21) peptide). The class given is biochemical. The note with it: 6 nM p300-HAT domain; average of at least 2 replicate titrations. The protocol:
The activity of the compounds described herein as p300/CBP HAT inhibitors may be readily determined using a scintillation proximity assay (SPA) methodology (Udenfriend, S.; Gerber, L.; Nelson, N. Scintillation Proximity Assay: A Sensitive and Continuous Isotopic Method for Monitoring Ligand/Receptor and Antigen/Antibody Interactions. Anal. Biochem. 1987, 161, 494-500).
In a typical experiment the p300 HAT inhibitory activity of the compounds described herein was determined in accordance with the following experimental method.
The p300 HAT domain (residues 1287-1666) was expressed and purified with an N-terminal His tag from Escherichia coli cells. The expressed protein was purified by Ni2+affinity, followed by anion exchange chromatography. Appropriate fractions were pooled and buffer exchanged into 20 mM Hepes pH 7.5, 150 mM NaCl, and 1 mM TCEP.
(§1) Compounds of interest solubilized in DMSO were stamped in a Greiner black 384-well plate in a 10-point duplicate dose response using an Echo 550 (Labcyte). p300-HAT domain purified in-house (aa 1287-1666) was diluted to 6 nM in reaction buffer (50 mM Tris pH 8.0, 100 mM NaCl, 1 mM DTT, 0.069 mM Brij-35, 0.1 mM EDTA, 0.1 mg/mL BSA), combined with 4.14 μM AcCoA (Sigma-Aldrich) and 0.46 μM ^3H-AcCoA (PerkinElmer), and 12.5 μL added to each well and incubated for 30 min at RT. Reactions were initiated with 12.5 μL 2 μM biotinylated H3(1-21) peptide (New England Peptide) and run for 1 hr at RT, then quenched with 20 μL stop solution (200 mM Tris pH 8.0, 200 mM EDTA, 2M NaCl, 160 μM anacardic acid). 35 μL of the reaction volume was transferred to a 384-well streptavidin FlashPlate (PerkinElmer) using a Bravo liquid handler (Velocity 11) and incubated for 1.5 hr at RT. Plates were aspirated, washed with 95 μL wash buffer (15 mM Tris pH 8.5, 0.069 μM Brij-35), aspirated, sealed, and scintillation counts read on a Topcount (PerkinElmer). Data were analyzed in Genedata to determine inhibitor IC50 values.
Background: SPA uses beads or plates that emit light when radiolabelled molecules are held near them.

In a further test the target is T2, full length p300 (Homo sapiens, UniProt Q09472).
T2 construct: used 6 nM purified full length p300 (purchased from Active Motif); purchased Active Motif
Kind of test: Full length p300 SPA assay. The class given is biochemical. The note with it: 6 nM purified full length p300; read-out: FL P300 IC50. The protocol:
as §1
The full length p300 SPA assay was run following the same protocol as p300 HAT SPA assay, but used 6 nM purified full length p300 (purchased from Active Motif) in place of the purified p300-HAT domain.

Test [2] relates to acetylation of chromatin at H3K18 in HCT-116 cells. As to the kind of experiment: H3K18Ac MSD cellular assay. The note with it: Homo sapiens, 2 hr treatment. Type of test: cell-based. On the procedure:
Select compounds were also evaluated in a H3K18Ac MSD cellular assay that measures the ability of compounds to inhibit the acetylation of chromatin at H3K18, a process catalyzed by p300 and CBP. In a typical experiment the p300 HAT inhibitory activity inside cells of the compounds described herein was determined in accordance with the following experimental method. 20 k HCT-116 cells per well are plated in 75 μL RPMI+10% FBS media the night before treatment. Compounds plated in DMSO at 4× final concentration are resuspended in 30 μL RPMI+10% FBS, then 25 μL is combined with corresponding wells containing cells. Treated cells are incubated for 2 hr at 37° C., then lysed in 500 μL final volume and frozen at −80° C. MSD plates (Meso Scale Discovery) are coated overnight at 4° C. with 60 μL 1:500 α-total histone antibody (Millipore MAB3422) in PBS. Plates are then blocked with 5% BSA in TBST shaking at RT for 1 hr, washed, and 30 μL lysate added to each well for 2 hr shaking at RT. Plates are washed and 25 μL 1:216 α-H3K18ac antibody (CST 9675) in PBS added, then incubated for 1 hr shaking at RT. Plates are washed again, then 25 μL 1:1000 Sulfo-Tag goat α-rabbit antibody (Meso Scale Discovery R32Ab-1) in PBS is added for 1 hr shaking at RT. Plates are washed once more, then 150 μL 1× Read Buffer (MSD #R92TD-3) is added to all wells and read on MSD SECTOR Imager 2400 using the conventional read setup.

T2 sequence (Q09472 whole entry): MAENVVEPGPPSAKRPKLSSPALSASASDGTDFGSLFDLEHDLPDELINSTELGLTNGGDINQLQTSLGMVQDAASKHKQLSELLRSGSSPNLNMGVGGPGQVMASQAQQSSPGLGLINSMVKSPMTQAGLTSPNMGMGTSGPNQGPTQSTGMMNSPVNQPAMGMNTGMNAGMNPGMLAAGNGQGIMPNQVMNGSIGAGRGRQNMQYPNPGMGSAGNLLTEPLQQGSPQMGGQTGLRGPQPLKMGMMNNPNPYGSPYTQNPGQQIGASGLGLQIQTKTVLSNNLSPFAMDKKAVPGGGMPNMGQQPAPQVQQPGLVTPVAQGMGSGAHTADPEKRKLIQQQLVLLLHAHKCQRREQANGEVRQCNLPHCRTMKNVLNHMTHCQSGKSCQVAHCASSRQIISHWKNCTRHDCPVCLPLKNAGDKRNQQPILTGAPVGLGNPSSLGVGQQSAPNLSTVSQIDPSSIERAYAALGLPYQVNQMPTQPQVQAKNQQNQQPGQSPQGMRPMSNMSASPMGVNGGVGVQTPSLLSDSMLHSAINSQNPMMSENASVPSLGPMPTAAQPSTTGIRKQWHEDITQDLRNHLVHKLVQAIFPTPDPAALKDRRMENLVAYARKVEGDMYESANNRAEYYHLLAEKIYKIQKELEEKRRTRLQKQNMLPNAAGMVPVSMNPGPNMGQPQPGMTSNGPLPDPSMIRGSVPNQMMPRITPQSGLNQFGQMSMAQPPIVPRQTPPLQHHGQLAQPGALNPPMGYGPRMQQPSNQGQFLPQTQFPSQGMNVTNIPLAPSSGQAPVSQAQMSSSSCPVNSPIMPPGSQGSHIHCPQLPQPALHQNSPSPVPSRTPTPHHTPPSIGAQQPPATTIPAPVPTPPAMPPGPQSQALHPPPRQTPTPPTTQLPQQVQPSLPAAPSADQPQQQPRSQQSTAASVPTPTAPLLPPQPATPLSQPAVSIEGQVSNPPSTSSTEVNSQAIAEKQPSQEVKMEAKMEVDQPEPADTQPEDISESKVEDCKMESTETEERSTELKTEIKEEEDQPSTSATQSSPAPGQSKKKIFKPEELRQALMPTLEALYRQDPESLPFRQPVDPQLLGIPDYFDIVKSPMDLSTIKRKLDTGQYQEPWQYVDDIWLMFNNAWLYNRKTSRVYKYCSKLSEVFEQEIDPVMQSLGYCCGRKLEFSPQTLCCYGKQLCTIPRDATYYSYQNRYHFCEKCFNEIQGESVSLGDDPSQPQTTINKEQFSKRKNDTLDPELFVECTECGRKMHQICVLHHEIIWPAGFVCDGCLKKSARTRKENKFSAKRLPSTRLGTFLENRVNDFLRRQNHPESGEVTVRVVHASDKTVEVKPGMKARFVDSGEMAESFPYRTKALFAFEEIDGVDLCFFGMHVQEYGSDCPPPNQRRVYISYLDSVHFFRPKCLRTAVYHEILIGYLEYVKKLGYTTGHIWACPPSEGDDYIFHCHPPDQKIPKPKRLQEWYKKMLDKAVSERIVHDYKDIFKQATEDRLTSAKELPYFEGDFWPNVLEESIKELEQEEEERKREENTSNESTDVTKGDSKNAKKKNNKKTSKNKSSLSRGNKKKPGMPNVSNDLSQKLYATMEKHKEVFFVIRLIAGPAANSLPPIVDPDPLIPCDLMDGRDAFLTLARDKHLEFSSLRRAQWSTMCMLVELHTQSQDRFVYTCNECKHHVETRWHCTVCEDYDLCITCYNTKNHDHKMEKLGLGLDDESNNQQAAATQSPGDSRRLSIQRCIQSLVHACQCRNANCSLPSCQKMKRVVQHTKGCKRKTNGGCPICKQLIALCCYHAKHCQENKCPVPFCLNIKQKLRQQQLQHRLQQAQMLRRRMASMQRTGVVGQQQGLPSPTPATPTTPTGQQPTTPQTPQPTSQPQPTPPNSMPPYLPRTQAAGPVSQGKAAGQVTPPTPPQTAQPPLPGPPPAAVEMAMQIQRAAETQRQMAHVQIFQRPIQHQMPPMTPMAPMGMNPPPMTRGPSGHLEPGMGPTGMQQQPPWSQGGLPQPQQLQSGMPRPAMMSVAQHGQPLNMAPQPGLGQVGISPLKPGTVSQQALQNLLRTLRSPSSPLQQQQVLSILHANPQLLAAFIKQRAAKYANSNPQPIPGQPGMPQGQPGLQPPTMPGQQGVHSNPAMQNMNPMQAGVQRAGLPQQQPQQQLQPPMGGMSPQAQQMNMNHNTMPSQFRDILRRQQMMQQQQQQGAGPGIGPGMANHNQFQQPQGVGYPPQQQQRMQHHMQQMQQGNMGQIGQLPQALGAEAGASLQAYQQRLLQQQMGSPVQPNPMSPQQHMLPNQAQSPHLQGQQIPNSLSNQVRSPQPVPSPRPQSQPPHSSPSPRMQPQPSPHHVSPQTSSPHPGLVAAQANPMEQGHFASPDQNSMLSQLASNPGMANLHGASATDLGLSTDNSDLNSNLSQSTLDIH

As a reminder, the IC50 is the concentration that gives 50% inhibition. What is called EC50 is the midpoint of the concentration-response curve. Take `CC(=O)N1CC(Oc2ccc(NC(=O)C(NCC(C)c3ccc(C#N)cc3)c3cccc(F)c3)nc2)C1` (single isomer, unassigned) [23 Isomer 1]: the IC50 was 23.3 nM in test [1] and less than 3 nM at full length p300. In test [2], this compound returned an EC50 of 31.9 nM.
For `CC(CNC(C(=O)Nc1ccc(OC2CN(C(=O)C3CC3)C2)cn1)c1ccccc1)c1ccc(C#N)cc1` (single isomer, unassigned) [21 Isomer 1], the figures for the IC50 (in test [1]; at full length p300) were 27.4 nM and less than 2 nM, respectively.
Turning to `CC(=O)N1CCC(Oc2ccc(NC(=O)C(NCCc3ccc(C#N)cc3)c3ccccc3)nc2)CC1` (single isomer, unassigned) [9 Isomer 2], the values for the IC50 (in test [1]; on full length p300) were greater than 2000 nM and 102 nM, respectively.
`Cn1cc(COc2ccc(NC(=O)C(NCCc3ccc(Cl)cc3)c3ccccc3)nc2)cn1` (single isomer, unassigned) [8 Isomer 2]: the IC50 in test [1] worked out at 16.8 nM. Also, a half-maximal effect in test [2] (EC50) was put at 69 nM.
With `CC(=O)N1CC(Oc2ccc(NC(=O)C(NCC(C)c3ccc(C#N)cc3)c3cnn(C)c3)nc2)C1` (single isomer, unassigned) [24 Isomer 1], the results for the IC50 (in test [1]; on full length p300) were 38 nM and less than 3 nM, respectively. For the same compound, the EC50 in test [2] was determined as 57 nM.
Turning to `N#Cc1ccc(CCNC(C(=O)Nc2ccc(OC3CCOCC3)cn2)c2ccccc2)cc1` (single isomer, unassigned) [5 Isomer 2], the IC50 in test [1] is greater than 2000 nM; on full length p300, 137 nM.
With `CN1CCC(Oc2ccc(NC(=O)C(NCCc3ccc(C#N)cc3)c3ccccc3)nc2)CC1` (single isomer, unassigned) [1 Isomer 2], the results for the half-maximal inhibitory concentration (IC50) (in test [1]; at full length p300) were greater than 5000 nM and 240 nM, respectively.
On to `CN1CCC(Oc2ccc(NC(=O)C(NCCc3ccc(C#N)cc3)c3ccccc3)nc2)CC1` (single isomer, unassigned) [1 Isomer 1], for which the IC50 is 27.7 nM in test [1] and less than 2 nM on full length p300. Further, the EC50 in test [2] turned out to be 35 nM.
In the case of `CC(=O)N1CC(Oc2ccc(NC(=O)C(NC[C@@H](C)c3ccc(C#N)cc3)c3ccccc3)nc2)C1` (single isomer, unassigned) [2 Isomer 1], the half-inhibitory concentration (IC50) in test [1] was 21.2 nM; on full length p300, less than 2 nM. For the same compound, the 50% effective concentration (EC50) in test [2] amounted to 20 nM.
Regarding `N#Cc1ccc(CCNC(C(=O)Nc2ccc(OC3CCOCC3)cn2)c2ccccc2)cc1` (single isomer, unassigned) [5 Isomer 1], the IC50 in test [1] is 97.6 nM; at full length p300 it was 3.69 nM.
Compound `CC(=O)N1CCC[C@@H](Oc2ccc(NC(=O)C(NCCc3ccc(C#N)cc3)c3ccccc3)nc2)C1` (single isomer, unassigned) [16 Isomer 2] registered an IC50 in test [1] greater than 2000 nM.
The same measure, in the same setting: next, `CC(CNC(C(=O)Nc1ccc(OC2CN(C(=O)OC(C)(C)C)C2)cn1)c1ccccc1)c1ccc(C#N)cc1` (single isomer, unassigned) [25 Isomer 2]: 115 nM.
Turning to `CC(=O)N1CCC(Oc2ccc(NC(=O)C(NCCc3ccc(C#N)cc3)c3ccccc3)nc2)CC1` (single isomer, unassigned) [9 Isomer 1], the IC50 amounted to 56.4 nM in test [1] and 4.21 nM at full length p300.
Turning to `CN1CC(Oc2ccc(NC(=O)C(NCCc3ccc(Cl)cc3)c3ccccc3)nc2)CCC1=O` (single isomer, unassigned) [10 Isomer 3], in test [1], the IC50 was found to be 45.4 nM.
With `Cn1cc(COc2ccc(NC(=O)C(NCCc3ccc(Cl)cc3)c3ccccc3)nc2)cn1` (single isomer, unassigned) [8 Isomer 1], the concentration for half-maximal inhibition (IC50) in test [1] is 1360 nM.
Same read-out and setting: next, `Cc1cnc(Oc2ccc(NC(=O)C(NCCc3ccc(C#N)cc3)c3ccccc3)nc2)nc1` (single isomer, unassigned) [22 Isomer 2]: 1390 nM; `CC(CNC(C(=O)Nc1ccc(Oc2cnn(C)c2)cn1)c1ccccc1)c1ccc(C#N)cc1` (single isomer, unassigned) [17 Isomer 3]: greater than 2000 nM.
The same measure, in the same setting: next, `N#Cc1ccc(CCNC(C(=O)Nc2ccc(OC3COC3)cn2)c2ccccc2)cc1` (single isomer, unassigned) [6 Isomer 2]: 1140 nM.
